Experiments:
Assay type in all cases: binding
Settings in all cases: Compound Concentration 10 µM
panel of 442 kinases [1] = biological target: T1, panel of 442 kinases (Homo sapiens, UniProt P36888, R834Q)
T1 construct: purchased KINOMEscan
T1 sequence (P36888 27-993 R834Q): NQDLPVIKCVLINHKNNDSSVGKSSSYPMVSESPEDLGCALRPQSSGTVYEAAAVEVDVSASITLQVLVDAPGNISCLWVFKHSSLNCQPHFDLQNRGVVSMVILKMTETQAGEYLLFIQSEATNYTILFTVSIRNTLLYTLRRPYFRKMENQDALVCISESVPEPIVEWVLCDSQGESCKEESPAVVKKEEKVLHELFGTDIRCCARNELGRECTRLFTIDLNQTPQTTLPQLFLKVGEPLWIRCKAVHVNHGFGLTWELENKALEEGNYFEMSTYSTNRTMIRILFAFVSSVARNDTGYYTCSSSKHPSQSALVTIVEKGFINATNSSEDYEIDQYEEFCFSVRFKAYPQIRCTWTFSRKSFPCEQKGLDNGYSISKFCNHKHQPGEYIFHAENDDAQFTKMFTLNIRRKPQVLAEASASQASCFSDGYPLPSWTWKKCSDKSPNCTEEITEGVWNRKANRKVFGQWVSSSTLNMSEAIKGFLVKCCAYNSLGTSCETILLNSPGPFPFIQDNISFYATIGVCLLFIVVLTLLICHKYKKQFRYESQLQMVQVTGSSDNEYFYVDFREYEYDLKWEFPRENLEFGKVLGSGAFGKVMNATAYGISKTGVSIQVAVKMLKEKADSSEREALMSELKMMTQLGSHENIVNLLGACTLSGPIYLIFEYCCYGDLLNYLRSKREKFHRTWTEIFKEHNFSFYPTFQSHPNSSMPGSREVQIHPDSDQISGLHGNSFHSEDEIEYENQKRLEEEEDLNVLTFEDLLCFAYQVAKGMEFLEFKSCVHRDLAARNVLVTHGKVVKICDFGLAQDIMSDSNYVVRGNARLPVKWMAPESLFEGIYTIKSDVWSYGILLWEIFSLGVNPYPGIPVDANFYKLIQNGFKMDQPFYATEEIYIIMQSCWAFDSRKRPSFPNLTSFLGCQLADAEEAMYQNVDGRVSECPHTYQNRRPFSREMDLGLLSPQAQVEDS
Text: (§1) We assessed the selectivity of members of this scaffold using the KINOMEscan methodology across a near comprehensive panel of 442 kinases [[18,27]].

panel of 442 kinases [2] = biological target: T2, panel of 442 kinases (Homo sapiens, UniProt P49759)
T2 construct: purchased KINOMEscan
Text: as §1

panel of 442 kinases [3] = biological target: T3, panel of 442 kinases (Homo sapiens, UniProt Q9Y2H1)
T3 construct: purchased KINOMEscan
Text: as §1

T3 sequence (Q9Y2H1 whole entry): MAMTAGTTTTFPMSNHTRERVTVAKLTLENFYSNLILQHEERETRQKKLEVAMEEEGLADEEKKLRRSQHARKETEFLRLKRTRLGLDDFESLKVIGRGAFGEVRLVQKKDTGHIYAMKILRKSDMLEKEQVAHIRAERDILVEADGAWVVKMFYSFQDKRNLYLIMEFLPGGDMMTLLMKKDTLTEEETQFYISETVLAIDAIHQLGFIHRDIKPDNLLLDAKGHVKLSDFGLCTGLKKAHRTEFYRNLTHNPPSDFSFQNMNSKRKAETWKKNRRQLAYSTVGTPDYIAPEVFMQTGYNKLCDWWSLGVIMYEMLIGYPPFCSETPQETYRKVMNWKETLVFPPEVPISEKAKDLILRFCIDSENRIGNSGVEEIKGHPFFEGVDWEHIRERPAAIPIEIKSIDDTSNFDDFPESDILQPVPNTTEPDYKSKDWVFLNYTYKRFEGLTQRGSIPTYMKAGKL
T2 sequence (P49759 whole entry): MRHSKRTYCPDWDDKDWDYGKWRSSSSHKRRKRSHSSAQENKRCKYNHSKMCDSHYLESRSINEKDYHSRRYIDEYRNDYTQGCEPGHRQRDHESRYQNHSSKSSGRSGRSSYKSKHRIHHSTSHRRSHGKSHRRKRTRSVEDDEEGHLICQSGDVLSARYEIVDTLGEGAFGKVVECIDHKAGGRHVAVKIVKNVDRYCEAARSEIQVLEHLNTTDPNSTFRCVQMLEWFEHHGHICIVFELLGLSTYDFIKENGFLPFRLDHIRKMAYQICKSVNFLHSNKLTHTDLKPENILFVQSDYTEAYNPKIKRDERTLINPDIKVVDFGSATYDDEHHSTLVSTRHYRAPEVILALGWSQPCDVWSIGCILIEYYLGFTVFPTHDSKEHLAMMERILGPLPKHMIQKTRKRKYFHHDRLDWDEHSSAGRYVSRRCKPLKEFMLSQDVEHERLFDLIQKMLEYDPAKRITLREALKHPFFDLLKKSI

Compound | KINOMEscan: FLT3(R834Q) (panel of 442 kinases [1]) | KINOMEscan: CLK1 (panel of 442 kinases [2]) | KINOMEscan: NDR2 (panel of 442 kinases [3])
COc1cc(C(=O)N2CCC(N3CCN(C)CC3)CC2)ccc1Nc1ncc2c(n1)N1CCc3cccc(c31)C(=O)N2C [Compound 24] | 100 | 11 | 
CCOc1cc(C(=O)N2CCC(N3CCN(C)CC3)CC2)ccc1Nc1ncc2c(n1)N(C1CCCC1)c1ccccc1C(=O)N2C [Compound 26] | 100 | 100 | 100
COc1cc(C(=O)N2CCC(N3CCN(C)CC3)CC2)ccc1Nc1ncc2c(n1)N(C1CCCC1)c1ccccc1C(=O)N2C [Compound 25, 11-cyclopentyl-2-((2-methoxy-4-(4-(4-methylpiperazin-1-yl)piperidine-1-carbonyl)phenyl)amino)-5-methyl-5H-benzo[e]pyrimido[5,4-b][1,4]diazepin-6(11H)-one] | 100 | 100 | 100
COc1cc(C(=O)N2CCC(N3CCN(C)CC3)CC2)ccc1Nc1ncc2c(n1)N(C)c1ccccc1C(=O)N2C [15 (LRRK2-IN-1)] | 100 | 28 | 100

Reference: article PMC3914206
